Data from patent US11453683B1, “KRas G12D inhibitors” (Mirati Therapeutics, Inc., priority 2019, dated 2022).

The molecules below were run on KRas G12D-mediated phosphorylation of ERK (assay: Inhibition of KRas G12D-mediated phosphorylation of ERK in AGS cells). Settings: Homo sapiens; AGS cells expressing G12D, 3 hours, phospho-ERK normalized to GAPDH.
Assay type: cell-based
Procedure, shortened: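 Fixed, methanol-permeabilized; phospho-ERK (Thr202/Tyr204) by in-cell immunofluorescence normalized to GAPDH. Percent of DMSO control, IC50 by 4-parameter fit.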

Compound	IC50
CN1CCC[C@H]1COc1nc(N2C[C@H]3CC[C@@H](C2)N3)c2cnc(-c3cccc4c3C3(CC4)CC3)c(F)c2n1 [Example 162, 4-((1R,5S)-3,8-diazabicyclo[3.2.1]octan-3-yl)-7-(2′,3′-dihydrospiro[cyclopropane-1,1′-inden]-7′-yl)-8-fluoro-2-(((S)-1-methylpyrrolidin-2-yl)methoxy)pyrido[4,3-d]pyrimidine bis(2,2,2-trifluoroacetate)]	> 16.7 µM
O=C(CCl)N1CCC(Oc2nc(N3C[C@H]4CC[C@@H](C3)N4)c3cnc(-c4cccc5cccc(Cl)c45)c(F)c3n2)CC1 [Example 163, 1-(4-((4-((1R,5S)-3,8-diazabicyclo[3.2.1]octan-3-yl)-7-(8-chloronaphthalen-1-yl)-8-fluoropyrido[4,3-d]pyrimidin-2-yl)oxy)piperidin-1-yl)-2-chloroethan-1-one bis(2,2,2-trifluoroacetate)]	> 16.7 µM
Cc1nccn1CCOc1nc(N2C[C@H]3C[C@@H](O)[C@@H](C2)N3)c2cnc(-c3cccc4cccc(Cl)c34)c(F)c2n1 [Example 167, (1R,5R,6R)-3-(7-(8-chloronaphthalen-1-yl)-8-fluoro-2-(2-(2-methyl-1H-imidazol-1-yl)ethoxy)pyrido[4,3-d]pyrimidin-4-yl)-3,8-diazabicyclo[3.2.1]octan-6-ol]	16.1 µM
O[C@@H]1C[C@@H]2CN(c3nc(OCCn4ccnc4CF)nc4c(F)c(-c5cccc6cccc(Cl)c56)ncc34)C[C@H]1N2 [Example 168, (1R,5R,6R)-3-(7-(8-chloronaphthalen-1-yl)-8-fluoro-2-(2-(2-(fluoromethyl)-1H-imidazol-1-yl)ethoxy)pyrido[4,3-d]pyrimidin-4-yl)-3,8-diazabicyclo[3.2.1]octan-6-ol]	> 16.7 µM
Cn1ccnc1CCOc1nc(N2C[C@H]3C[C@@H](O)[C@@H](C2)N3)c2cnc(-c3cccc4cccc(Cl)c34)c(F)c2n1 [Example 173, (1R,5R,6R)-3-(7-(8-chloronaphthalen-1-yl)-8-fluoro-2-(2-(1-methyl-1H-imidazol-2-yl)ethoxy)pyrido[4,3-d]pyrimidin-4-yl)-3,8-diazabicyclo[3.2.1]octan-6-ol]	10.5 µM
CC1CCc2cccc(-c3ncc4c(N5CC6CCC(C5)N6)nc(OC[C@@H]5CCCN5C)nc4c3F)c21 (stereo partly drawn) [Example 174, 4-((1R,5S)-3,8-diazabicyclo[3.2.1]octan-3-yl)-8-fluoro-7-(3-methyl-2,3-dihydro-1H-inden-4-yl)-2-(((S)-1-methylpyrrolidin-2-yl)methoxy)pyrido[4,3-d]pyrimidine]	12.8 µM
Cc1cc(-c2ncc3c(N4C[C@H]5CC[C@@H](C4)N5)nc(OCC45CCCN4CCC5)nc3c2F)c2c(Cl)cccc2c1 [Example 175, 4-((1R,5S)-3,8-diazabicyclo[3.2.1]octan-3-yl)-7-(8-chloro-3-methylnaphthalen-1-yl)-8-fluoro-2-((hexahydro-1H-pyrrolizin-7a-yl)methoxy)pyrido[4,3-d]pyrimidine]	> 5.56 µM
Nc1nccn1CCOc1nc(N2CC3CCC(C2)N3)c2cnc(-c3cccc4cccc(Cl)c34)c(F)c2n1 [Example 178, 1-[2-[7-(8-chloro-1-naphthyl)-4-(3,8-diazabicyclo[3.2.1]octan-3-yl)-8-fluoro-pyrido[4,3-d]pyrimidin-2-yl]oxyethyl]imidazol-2-amine]	> 16.7 µM
C#Cc1cccc2cccc(-c3ncc4c(N5C[C@H]6CC[C@@H](C5)N6)nc(OCC56CCCN5CCC6)nc4c3F)c12 [Example 179, 4-((1R,5S)-3,8-diazabicyclo[3.2.1]octan-3-yl)-7-(8-ethynylnaphthalen-1-yl)-8-fluoro-2-((hexahydro-1H-pyrrolizin-7a-yl)methoxy)pyrido[4,3-d]pyrimidine]	0.0712 µM
Fc1c(-c2cccc3cccc(-c4c[nH]nn4)c23)ncc2c(N3C[C@H]4CC[C@@H](C3)N4)nc(OCC34CCCN3CCC4)nc12 [Example 180, 7-(8-(1H-1,2,3-triazol-4-yl)naphthalen-1-yl)-4-((1R,5S)-3,8-diazabicyclo[3.2.1]octan-3-yl)-8-fluoro-2-((hexahydro-1H-pyrrolizin-7a-yl)methoxy)pyrido[4,3-d]pyrimidine]	> 16.7 µM
Oc1cc(-c2ncc3c(N4C[C@H]5CC[C@@H](C4)N5)ncnc3c2F)c2ccccc2c1 [Example 181, 4-(4-((1R,5S)-3,8-diazabicyclo[3.2.1]octan-3-yl)-8-fluoropyrido[4,3-d]pyrimidin-7-yl)naphthalen-2-ol]	12.8 µM
Nc1nc(N2CC3CCC(C2)N3)c2cnc(-c3cc(O)cc4ccccc34)c(F)c2n1 [Example 182, 4-[2-amino-4-(3,8-diazabicyclo[3.2.1]octan-3-yl)-8-fluoro-pyrido[4,3-d]pyrimidin-7-yl]naphthalen-2-ol]	13.5 µM
CNc1nc(N2CC3CCC(C2)N3)c2cnc(-c3cc(O)cc4ccccc34)c(F)c2n1 [Example 183, 4-[4-(3,8-diazabicyclo[3.2.1]octan-3-yl)-8-fluoro-2-(methylamino)pyrido[4,3-d]pyrimidin-7-yl]naphthalen-2-ol]	5.25 µM
C#Cc1cccc2cc(O)cc(-c3ncc4c(N5C[C@H]6CC[C@@H](C5)N6)nc(OCC56CCCN5CCC6)nc4c3F)c12 [Example 185, 4-(4-((1R,5S)-3,8-diazabicyclo[3.2.1]octan-3-yl)-8-fluoro-2-((hexahydro-1H-pyrrolizin-7a-yl)methoxy)pyrido[4,3-d]pyrimidin-7-yl)-5-ethynylnaphthalen-2-ol]	0.0071 µM
Fc1c(-c2cccc3ccccc23)ncc2c(N3C[C@H]4CC[C@@H](C3)N4)nc(OCC34CCCN3CCC4)nc12 [Example 186, 4-((1R,5S)-3,8-diazabicyclo[3.2.1]octan-3-yl)-8-fluoro-7-(naphthalen-1-yl)-2-((tetrahydro-1H-pyrrolizin-7a(5H)-yl)methoxy)pyrido[4,3-d]pyrimidine]	3.38 µM
CCc1cccc2cccc(-c3ncc4c(N5C[C@H]6CC[C@@H](C5)N6)nc(OCC56CCCN5CCC6)nc4c3F)c12 [Example 187, 4-((1R,5S)-3,8-diazabicyclo[3.2.1]octan-3-yl)-7-(8-ethylnaphthalen-1-yl)-8-fluoro-2-((tetrahydro-1H-pyrrolizin-7a(5H)-yl)methoxy)pyrido[4,3-d]pyrimidine]	0.45 µM
C#Cc1c(F)ccc2cccc(-c3ncc4c(N5C[C@H]6CC[C@@H](C5)N6)nc(OCC56CCCN5CCC6)nc4c3F)c12 [Example 189, 4-((1R,5S)-3,8-diazabicyclo[3.2.1]octan-3-yl)-7-(8-ethynyl-7-fluoronaphthalen-1-yl)-8-fluoro-2-((tetrahydro-1H-pyrrolizin-7a(5H)-yl)methoxy)pyrido[4,3-d]pyrimidine]	0.0241 µM
Cc1c(-c2cc(O)cc3ccccc23)ncc2c(N3C[C@H]4CC[C@@H](C3)N4)nc(OC[C@@H]3CCCN3C)nc12 [Example 190, 4-(4-((1R,5S)-3,8-diazabicyclo[3.2.1]octan-3-yl)-8-methyl-2-(((S)-1-methylpyrrolidin-2-yl)methoxy)pyrido[4,3-d]pyrimidin-7-yl)naphthalen-2-ol]	16.3 µM
CN1CCC[C@H]1COc1nc(N2C[C@H]3CC[C@@H](C2)N3)c2cnc(-c3cc(O)cc4ccccc34)c(Cl)c2n1 [Example 191, 4-(4-((1R,5S)-3,8-diazabicyclo[3.2.1]octan-3-yl)-8-chloro-2-(((S)-1-methylpyrrolidin-2-yl)methoxy)pyrido[4,3-d]pyrimidin-7-yl)naphthalen-2-ol]	5.05 µM
OCC#Cc1cccc2cccc(-c3ncc4c(N5C[C@H]6CC[C@@H](C5)N6)nc(OCC56CCCN5CCC6)nc4c3F)c12 [Example 193, 3-(8-(4-((1R,5S)-3,8-diazabicyclo[3.2.1]octan-3-yl)-8-fluoro-2-((tetrahydro-1H-pyrrolizin-7a(5H)-yl)methoxy)pyrido[4,3-d]pyrimidin-7-yl)naphthalen-1-yl)prop-2-yn-1-ol]	8.52 µM
CC#Cc1cccc2cccc(-c3ncc4c(N5C[C@H]6CC[C@@H](C5)N6)nc(OCC56CCCN5CCC6)nc4c3F)c12 [Example 195, 4-((1R,5S)-3,8-diazabicyclo[3.2.1]octan-3-yl)-8-fluoro-7-(8-(prop-1-yn-1-yl)naphthalen-1-yl)-2-((tetrahydro-1H-pyrrolizin-7a(5H)-yl)methoxy)pyrido[4,3-d]pyrimidine]	2.46 µM
Fc1c(-c2cccc(C(F)(F)F)c2C(F)(F)F)ncc2c(N3C[C@H]4CC[C@@H](C3)N4)nc(OCC34CCCN3CCC4)nc12 [Example 197, 4-((1R,5S)-3,8-diazabicyclo[3.2.1]octan-3-yl)-7-(2,3-bis(trifluoromethyl)phenyl)-8-fluoro-2-((tetrahydro-1H-pyrrolizin-7a(5H)-yl)methoxy)pyrido[4,3-d]pyrimidine]	> 16.7 µM
N#Cc1cccc2cccc(-c3ncc4c(N5C[C@H]6CC[C@@H](C5)N6)nc(OCC56CCCN5CCC6)nc4c3F)c12 [Example 198, 8-(4-((1R,5S)-3,8-diazabicyclo[3.2.1]octan-3-yl)-8-fluoro-2-((tetrahydro-1H-pyrrolizin-7a(5H)-yl)methoxy)pyrido[4,3-d]pyrimidin-7-yl)-1-naphthonitrile]	2.43 µM
CSc1cccc2cccc(-c3ncc4c(N5C[C@H]6CC[C@@H](C5)N6)nc(OCC56CCCN5CCC6)nc4c3F)c12 [Example 199, 4-((1R,5S)-3,8-diazabicyclo[3.2.1]octan-3-yl)-8-fluoro-7-(8-(methylthio)naphthalen-1-yl)-2-((tetrahydro-1H-pyrrolizin-7a(5H)-yl)methoxy)pyrido[4,3-d]pyrimidine]	0.465 µM
C=Cc1cccc2cccc(-c3ncc4c(N5C[C@H]6CC[C@@H](C5)N6)nc(OC[C@@H]5CCCN5C)nc4c3F)c12 [Example 201, 4-((1R,5S)-3,8-diazabicyclo[3.2.1]octan-3-yl)-8-fluoro-2-(((S)-1-methylpyrrolidin-2-yl)methoxy)-7-(8-vinylnaphthalen-1-yl)pyrido[4,3-d]pyrimidine]	13.9 µM
COCCO[C@@H]1C[C@@H](COc2nc(N3C[C@H]4CC[C@@H](C3)N4)c3cnc(-c4cccc5cccc(Cl)c45)c(F)c3n2)N(C)C1 [Example 202, 4-((1R,5S)-3,8-diazabicyclo[3.2.1]octan-3-yl)-7-(8-chloronaphthalen-1-yl)-8-fluoro-2-(((2S,4R)-4-(2-methoxyethoxy)-1-methylpyrrolidin-2-yl)methoxy)pyrido[4,3-d]pyrimidine]	10.2 µM
